Columns and labels:
Assay in all cases: relative viability (nuclei count vs DMSO), 5 days (fraction); higher = more cells survive
[1] = compound: C1=CC=C2C(=C1)N=C(S2)C(C#N)C3=NC(=NC=C3)NCCC4=CN=CC=C4 + COc1cccc2cc(-c3nc([C@H]4CC[C@H](C(=O)O)CC4)n4ncnc(N)c34)[nH]c12 [OSI-027] (partner 0.5 µM)
Procedure, shortened: (§1)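 For relative viability, nuclei counts in treated wells were divided by those in vehicle wells. Lung cancer cell lines had been pin-tool dosed in 1536-well plates the day after seeding and cultured for 5 days, then fixed and stained in one step (final 0.05% Triton X-100, 1% formaldehyde, 1 ug/ml Hoechst) and imaged at 4×. Doses were one drug alone or a fixed anchor-drug dose plus five library-drug doses (not always all listed) in √10 steps, and values are duplicate-plate medians.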

[2] = compound: C1=CC=C2C(=C1)N=C(S2)C(C#N)C3=NC(=NC=C3)NCCC4=CN=CC=C4 + CC(=O)Nc1cccc(-n2c(=O)n(C3CC3)c(=O)c3c(Nc4ccc(I)cc4F)n(C)c(=O)c(C)c32)c1 [Trametinib] (partner 0.02 µM)
Procedure, shortened: as §1

Vandetanib + Trametinib = compound: COc1cc2/c(=N/c3ccc(Br)cc3F)nc[nH]c2cc1OCC1CCN(C)CC1 [Vandetanib] + CC(=O)Nc1cccc(-n2c(=O)n(C3CC3)c(=O)c3c(Nc4ccc(I)cc4F)n(C)c(=O)c(C)c32)c1 [Trametinib] (partner 0.02 µM)
Procedure, shortened: as §1

CUDC-101 + Vorinostat = compound: C#Cc1cccc(Nc2ncnc3cc(OC)c(OCCCCCCC(=O)NO)cc23)c1 [CUDC-101] + O=C(CCCCCCC(=O)Nc1ccccc1)NO [Vorinostat] (partner 1 µM)
Procedure, shortened: as §1

| Cell Line | relative viability ([1]; first compound 0.005 µM) | relative viability ([1]; first compound 0.01581 µM) | relative viability ([1]; first compound 0.05 µM) | relative viability ([1]; first compound 0.1581 µM) | relative viability ([1]; first compound 0.5 µM) | relative viability ([2]; first compound 0.005 µM) | relative viability ([2]; first compound 0.01581 µM) | relative viability ([2]; first compound 0.05 µM) | relative viability ([2]; first compound 0.1581 µM) | relative viability ([2]; first compound 0.5 µM) | relative viability (Vandetanib + Trametinib; first compound 0.02 µM) | relative viability (Vandetanib + Trametinib; first compound 0.06325 µM) | relative viability (Vandetanib + Trametinib; first compound 0.2 µM) | relative viability (Vandetanib + Trametinib; first compound 0.6325 µM) | relative viability (Vandetanib + Trametinib; first compound 2 µM) | relative viability (CUDC-101 + Vorinostat; first compound 0.01 µM) | relative viability (CUDC-101 + Vorinostat; first compound 0.03162 µM) | relative viability (CUDC-101 + Vorinostat; first compound 0.1 µM) | relative viability (CUDC-101 + Vorinostat; first compound 0.3162 µM) | relative viability (CUDC-101 + Vorinostat; first compound 1 µM) |
| --- | --- | --- | --- | --- | --- | --- | --- | --- | --- | --- | --- | --- | --- | --- | --- | --- | --- | --- | --- | --- |
| HCC-366 | 0.482 | 0.961 | 0.856 | 1.05 | 0.672 | 0.281 | 0.378 | 0.314 | 0.404 | 0.307 | 0.265 | 0.339 | 0.343 | 0.362 | 0.269 | 0.393 | 0.312 | 0.29 | 0.313 | 0.254 |
| HCC-827 | 0.617 | 1.11 | 0.854 | 0.978 | 0.783 | 0.503 | 0.534 | 0.497 | 0.486 | 0.497 | 0.568 | 0.457 | 0.501 | 0.266 | 0.16 | 0.929 | 0.835 | 0.168 | 0.156 | 0.14 |
| HOP-62 | 0.669 | 0.828 | 0.762 | 0.989 | 0.793 | 0.359 | 0.394 | 0.394 | 0.37 | 0.366 | 0.354 | 0.368 | 0.36 | 0.4 | 0.363 | 0.716 | 0.57 | 0.665 | 0.524 | 0.261 |
| IA-LM |  |  |  |  |  |  |  |  |  |  |  |  |  |  |  | 0.997 | 0.915 | 0.93 | 0.797 | 0.586 |
| LC-2-ad | 0.724 | 0.803 | 0.912 | 0.875 | 0.695 | 0.881 | 0.979 | 0.891 | 0.928 | 0.829 | 0.899 | 0.858 | 0.939 | 0.861 | 0.662 | 0.721 | 0.716 | 0.703 | 0.658 | 0.538 |
| LCLC-97TM1 | 0.562 | 0.701 | 0.537 | 0.607 | 0.572 | 0.152 | 0.202 | 0.172 | 0.239 | 0.2 | 0.201 | 0.217 | 0.202 | 0.192 | 0.165 | 0.815 | 0.778 | 0.663 | 0.56 | 0.195 |
| LCLC-103H | 0.387 | 0.521 | 0.41 | 0.505 | 0.397 | 0.648 | 0.735 | 0.692 | 0.695 | 0.659 | 0.665 | 0.606 | 0.638 | 0.677 | 0.695 | 0.759 | 0.81 | 0.7 | 0.692 | 0.61 |
| LK-2 | 0.2 | 0.187 | 0.201 | 0.189 | 0.195 | 0.535 | 0.604 | 0.907 | 0.74 | 0.838 | 0.753 | 0.829 | 0.82 | 0.62 | 0.724 | 0.37 | 0.407 | 0.228 | 0.23 | 0.158 |
| LOU-NH91 | 0.673 | 0.689 | 0.703 | 0.733 | 0.729 | 0.794 | 0.806 | 0.764 | 0.794 | 0.779 | 0.775 | 0.731 | 0.725 | 0.716 | 0.673 | 1.04 | 0.842 | 0.833 | 0.703 | 0.43 |
| LU99A | 0.269 | 0.278 | 0.297 | 0.323 | 0.3 | 0.463 | 0.543 |  | 0.661 | 0.555 | 0.486 | 0.518 | 0.396 | 0.512 | 0.539 | 0.529 | 0.477 | 0.452 | 0.389 | 0.219 |
| LXF-289 | 0.515 | 0.863 | 0.797 | 0.846 | 0.589 | 0.601 | 0.726 | 0.716 | 0.706 | 0.577 | 0.681 | 0.663 | 0.606 | 0.69 | 0.677 | 0.755 | 0.757 | 0.71 | 0.594 | 0.447 |
| NCI-H23 | 0.566 | 0.552 | 0.474 | 0.601 | 0.614 |  | 0.436 | 0.391 | 0.406 | 0.45 | 0.382 | 0.342 | 0.335 | 0.455 | 0.293 | 0.71 | 0.731 | 0.683 | 0.661 | 0.335 |
| NCI-H322M | 0.515 | 0.463 | 0.529 | 0.585 | 0.685 | 0.483 | 0.525 | 0.489 | 0.569 | 0.558 | 0.513 | 0.476 | 0.516 | 0.55 | 0.486 | 0.858 | 0.81 | 0.799 | 0.596 | 0.494 |
| NCI-H358 | 0.726 | 0.749 | 0.805 | 0.913 | 0.739 | 0.125 | 0.132 | 0.113 | 0.139 | 0.15 | 0.153 | 0.129 | 0.123 | 0.128 | 0.123 | 0.697 | 0.733 | 0.695 | 0.447 | 0.128 |
| NCI-H441 |  | 0.669 | 0.556 | 0.719 | 0.487 | 0.444 | 0.409 | 0.432 | 0.49 | 0.307 | 0.527 | 0.467 | 0.43 | 0.405 | 0.351 | 0.968 | 0.915 | 0.784 | 0.937 | 0.618 |
| NCI-H460 | 0.281 | 0.735 | 0.67 | 0.727 | 0.238 |  | 0.137 | 0.131 | 0.175 | 0.141 | 0.141 | 0.147 | 0.157 | 0.148 | 0.123 | 0.679 | 0.73 | 0.695 | 0.597 | 0.409 |
| NCI-H1563 | 0.643 | 0.744 | 0.705 | 0.838 | 0.618 |  |  |  |  |  |  |  |  |  |  |  |  |  |  |  |
| NCI-H1623 | 0.488 | 0.386 | 0.397 | 0.553 | 0.345 |  |  |  |  |  |  |  |  |  |  |  |  |  |  |  |
| NCI-H1792 | 0.648 | 0.64 | 0.759 | 1.16 | 0.36 |  | 0.44 | 0.421 | 0.387 | 0.385 | 0.407 | 0.413 | 0.463 | 0.502 | 0.354 |  |  |  |  |  |

Source: the supplement of paper PMC10307832
